Data on four compounds can be found in patent US20180116993A1, “MODULATORS OF FARNESOID X RECEPTOR AND METHODS FOR THE USE THEREOF” (XIAMEN UNIVERSITY, priority 2015, published 2018).

Like-named read-outs stand apart in the source and are kept apart here. Marks after values point to notes of the source that are not given here.

One may read the EC50 as the concentration that produces a half-maximal response. The term viability denotes the share of living cells, or the viability signal relative to a control.

For assay [1], the target named is T1, FXR ligand binding domain (LBD) (Homo sapiens, UniProt Q96RI1).
T1 construct: made in house
T1 sequence (Q96RI1 262-486 limits assumed): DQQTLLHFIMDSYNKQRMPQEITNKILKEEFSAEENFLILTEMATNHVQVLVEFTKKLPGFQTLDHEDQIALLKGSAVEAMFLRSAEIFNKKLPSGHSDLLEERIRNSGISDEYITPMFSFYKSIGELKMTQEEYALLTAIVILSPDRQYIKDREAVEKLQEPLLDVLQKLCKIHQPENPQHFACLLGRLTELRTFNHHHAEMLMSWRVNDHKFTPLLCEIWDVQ
In words: AlphaScreen assay: FXR LBD recruitment of coregulator peptide motifs (SRC2-3, SRC1-2). Format: biochemical. The conditions noted are these: Table 2. How it is done: In search of novel ligands for FXR, we used FXR ligand binding domain (LBD) as a bait to screen chemical libraries based on AlphaScreen biochemical assay, which determines the efficacy of small molecules in influencing binding affinity of FXR with coregulator peptides (see e.g., Jin et al., (2013) Nature communications 4, 1937).
The binding of the cofactor peptide motifs to FXR ligand binding domain (LBD) in response to ligands was determined by AlphaScreen assays using a hexahistidine detection kit from Perkins-Elmer. The FXR LBD protein was purified as described previously (see e.g., Jin et al., (2013) Nature communications 4, 1937). The experiments were conducted with approximately 20-40 nM receptor LBD and 20 nM biotinylated cofactor peptides in the presence of 5 μg/ml donor and acceptor beads in a buffer containing 50 mM MOPS, 50 mM NaF, 0.05 mM CHAPS, and 0.1 mg/ml bovine serum albumin, all adjusted to a pH of 7.4.
On the technique in general: Alpha assays give light when donor and acceptor beads are brought close together.

Assay [2] has as its target T2, full-length FXR (Homo sapiens, UniProt Q96RI1).
T2 construct: The cells were co-transfected with plasmids encoding full-length FXR and the cognate luciferase reporter EcRE-Luc; expressed in transfected cells; host or cells: COS-7
T2 sequence (Q96RI1 1-486): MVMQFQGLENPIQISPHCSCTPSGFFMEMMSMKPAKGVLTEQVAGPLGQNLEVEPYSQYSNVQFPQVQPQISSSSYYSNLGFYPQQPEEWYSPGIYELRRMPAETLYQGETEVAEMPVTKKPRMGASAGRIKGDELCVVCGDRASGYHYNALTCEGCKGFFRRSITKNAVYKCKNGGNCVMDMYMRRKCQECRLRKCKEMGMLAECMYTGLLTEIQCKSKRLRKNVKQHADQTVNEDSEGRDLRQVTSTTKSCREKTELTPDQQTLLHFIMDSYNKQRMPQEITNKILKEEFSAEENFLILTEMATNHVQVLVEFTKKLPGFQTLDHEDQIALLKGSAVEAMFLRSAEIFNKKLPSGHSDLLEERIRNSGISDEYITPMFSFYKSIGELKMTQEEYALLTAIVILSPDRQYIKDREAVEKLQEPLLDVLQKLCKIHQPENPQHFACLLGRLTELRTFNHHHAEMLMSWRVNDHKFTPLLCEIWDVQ
In words: Cell-based FXR transactivation, EcRE luciferase reporter in COS-7 cells. The following applies: Table 2; for Cell-based FXR transactivation Fold changes by 5 μM compound: positive: induction, minus: repression; for EC50: EcRE luciferase reporter. How it is done: COS-7 cells were cotransfected with plasmids encoding full length FXR.
For transient transfection assay, COS-7 cells were maintained in DMEM containing 10% fetal bovine serum and were transiently transfected using Lipofectamine 2000 (Invitrogen). Before 24 h of transfection, 24-well plates were plated. The cells were co-transfected with plasmids encoding full-length FXR and the cognate luciferase reporter EcRE-Luc. Ligands were added 5 hours after transfection. Cells were harvested 24 hours later for the luciferase assays according to the manufacturer's instructions (Dual-Luciferase® Reporter Assay System, Promega). Luciferase activities were normalized to renilla activity co-transfected as an internal control.
Background: Reporter assays use an easily measured gene product as a stand-in for the process of interest.

In assay [3] the test system is human colorectal adenocarcinoma HCT15 cells. In words: MTT cell viability assay, HCT15. The following applies: 48 h, read-out: Cell viability as a percentage of the cells treated with DMSO, HCT15; for viability at 20 µM: HCT-15, 20 uM; for viability at 40 µM: HCT-15, 40 uM. Format: cell-based. From the text: (§1) The MTT assay is a colorimetric assay for assessing cell metabolic activity. It is widely used in high-throughput screening of antitumor drugs due to its high sensitivity and economical features. In this example, MTT was used to detect the inhibitory effects of compounds on various cancer cell lines. Cancer cells including human colorectal adenocarcinoma HCT15 cells, RA-resistant human colon cancer HCT116 cells, human cervical carcinoma Hela cells, human hepatoma HepG2 cells and human breast cancer MCF7 cells were cultured in DMEM medium containing 10% fetal bovine serum. 20 uM or 40 uM of compounds were administered to treat cells, cell viability is detected by MTT assay and expressed as a percentage of the cells treated with DMSO (Table 4).
(In general: Tetrazolium dyes change colour on reduction, which living cells bring about.)

For assay [4], the system named is RA-resistant human colon cancer HCT116 cells. In words: MTT cell viability assay, HCT116. The conditions noted are these: 48 h, read-out: Cell viability as a percentage of the cells treated with DMSO, HCT116; for viability at 20 µM: HCT-116, 20 uM; for viability at 40 µM: HCT-116, 40 uM. Format: cell-based.
Text: as §1

In assay [5] the test system is human hepatoma HepG2 cells. The assay can be described thus: MTT cell viability assay, HepG2. Format: cell-based. The conditions noted are these: 48 h, read-out: Cell viability as a percentage of the cells treated with DMSO, HepG2.
Text: as §1

In assay [6] the test system is human cervical carcinoma Hela cells. In words: MTT cell viability assay, Hela. Format: cell-based. The conditions noted are these: 48 h, read-out: Cell viability as a percentage of the cells treated with DMSO, Hela.
Text: as §1

In assay [7] the test system is human breast cancer MCF7 cells. The assay can be described thus: MTT cell viability assay, MCF-7. The following applies: 48 h, read-out: Cell viability as a percentage of the cells treated with DMSO, MCF-7. Format: cell-based.
Text: as §1

For assay [8], the system named is db/db mice. In words: Hepatic triglyceride, liver histology, serum ALT and ALP in high-fat diet fed db/db mice. The assay is classed as in vivo, mouse. How it is done: Liver tissues fixed in 4% paraformaldehyde in example 5 were performed for H&E staining by standard procedures. Liver tissues fixed in 4% paraformaldehyde were embedded in optimum cutting temperature compound (OCT), and cryosectioned. Frozen liver sections were stained with 0.3% oil red O according to standard procedures.
The triglyceride levels in liver tissues from mice treated with compounds were analyzed using Tissue triglyceride assay kit (Applygen, Beijing, China).
Alkaline Phosphatase (ALP) is a marker of cholestasis. Cholestasis can be suspected when there is an elevation of ALP enzymes. In fact, greater than 90% of patients with bile stasis will have an elevated alkaline phosphatase. […] The aminotransferase is used to evaluate the presence of hepatitis and may be elevated in cholestasis or with common bile duct obstruction. In this example, 8-10 week age db/db mice were fed with high-fat diet and treated with 10 mg/kg of compounds once daily for 10 days as in Example 5. The activities of serum ALP and ALT were analyzed using ALP kit and ALT kit, respectively (Nanjing Jiancheng Engineering Institute, China).

Assay [9] concerns db/db mice. The assay can be described thus: Serum/blood metabolic parameters in high-fat diet fed db/db mice. The conditions noted are these: 10 mg/kg, treat for 10 days, vehicle 527 ± 63. Format: in vivo, mouse. From the text:
KK-Ay mice (KK/Upj-Ay/J) are animal models with moderate obese and diabetes with insulin resistance. KK-Ay mice develop hyperglycemia, hyperinsulinemia, glucose intolerance and obesity as well as fat accumulation in liver by eight weeks of age. Pancreatic islets are hypertrophied and the β-cells are degranulated. db/db mice (BKS.Cg-Dockr+/+ Lepr^db/Jnju) are animal models of type II diabetes. They have the phenotype of insulin resistance. These model mice were used to detect the functions of our compounds on metabolic diseases.
8-10 weeks age mice were maintained as example 4, and fed with high-fat diet (Research Diets, D12492). Mice were i.p. injected with compounds once daily for 7, 10, 11 or 14 days as indicated in each table. After the last compounds injection, mice were fasted for 6 hours with free access to water, and then sacrificed. Part of each liver was fixed in 4% paraformaldehyde for H&E staining, and other liver tissues were stored in liquid nitrogen for enzyme activity measurement and gene expression analysis by RT-PCR. The serums were collected to measure metabolic parameters, including serum glucose, insulin, cholesterol, free fatty acid (FFA) and triglyceride levels. Serum glucose was analyzed using glucose oxidase method (Applygen, Beijing, China). The blood glucose in Table 11 was measured with Berenger blood glucose test strips (B/BRAUN, German) from blood by cutting mice tail after the 6th injection and following fast for 16 hours. Serum cholesterol and FFA were analyzed using Cholesterol Assay Kit and FFA Assay Kit (Bioassay Systems, USA; Nanjing Jiancheng Bioengineering Institute, China; FFA ELISA, R&D, USA), respectively. Serum triglyceride was analyzed using Triglyceride Assay Kit (Bioassay Systems, USA; WAKO Chemicals Inc., Japan; Applygen, Beijing, China). Liver triglyceride was analyzed using Tissue triglyceride assay kit (Applygen, Beijing, China). Serum insulin levels were measured by the Ultra Sensitive Mouse Insulin ELISA Kit (Crystal Chem. Inc., USA). RNA was isolated using Tissue RNA kit (Omega Bio-Tek, GA). The first strand cDNA were obtained by TAKARA reverse transcription kit. Real-time quantitative PCR were performed on a CFX96™ Real-Time PCR Detection System (Bio-Rad) using SYBR Premix Ex Taq™ (TAKARA). Relative mRNA expression levels were normalized to actin levels. […]

The mark [10] stands for this setting: SRC1-2 peptide, read-out: EC50 (μM) of FXR binding by AlphaScreen assay recruit SRC1-2.
Where [11] appears, read: SRC2-3 peptide, read-out: EC50 (μM) of FXR binding by AlphaScreen assay recruit SRC2-3.

On to `Cc1cc(C(=O)OC2CCC3CCCCC3C2)ccc1F` (centres unmarked) [XD-34, decahydro-naphthalen-2-yl 4-fluoro-3-methylbenzoate], for which the results for the EC50 in [1] (setting [10]), in assay [1] (setting [11]) and in assay [2] were less than 1 µM, less than 1 µM and 1000 to 10000 nM, respectively. Besides, the “Cell-based FXR transactivation Fold changes by 5 μM compound” value in assay [2] stood at 2. The viability at 20 µM in [3] turned out to be 100 ± 6%; in assay [4], 98 ± 6%; in [5] it was 100 ± 6%; in assay [6], 98 ± 6%; in [7] it was 100 ± 6%. Further, the viability at 40 µM came out at 100 ± 6% in assay [3]; 94 ± 6% in assay [4]; 88 ± 6% in assay [5]; 97 ± 6% in assay [6]; 99 ± 6% in [7]. In addition, in [8] (10 mg/kg once daily for 10 days, vehicle 129 ± 15), the “Serum ALP (U/L)” value is listed as 91 ± 18^a U/L. Moreover, the “Serum ALT (U/L)” value in assay [8] (10 mg/kg once daily for 10 days, vehicle 377 ± 48, Table 17) is 73 ± 20^b U/L.
Consider `O=C(OC1CCCCCCC1)c1ccc([N+](=O)[O-])cc1` [XD-24, cyclooctyl 4-nitrobenzoate], for which, in [2], the “Cell-based FXR transactivation Fold changes by 5 μM compound” value worked out at 1.2 and the EC50 is less than 1000 nM. Further, the “Serum Glucose (mg/dl)” value in assay [9] is recorded as 307 ± 39^a mg/dl.
Take `COc1cc(C(=O)OC2CC3CCC2(C)C3(C)C)ccc1F` (centres unmarked) [XD-3, 1,7,7-trimethyl-bicyclo[2.2.1]-heptan-2-yl 4-fluoro-3-methoxybenzoate]: the results for the concentration for a half-maximal effect (EC50) in [1] (setting [10]), in [1] (setting [11]) and in [2] were 1 to 10 µM, 1 to 10 µM and 1000 to 10000 nM, respectively. The “Cell-based FXR transactivation Fold changes by 5 μM compound” value in assay [2] is 5. The viability at 20 µM in assay [3] was 73 ± 5%; in assay [4] it was 80 ± 4%; in assay [5] it was 100 ± 3%; in assay [6], 100 ± 1%; in [7], 100 ± 4%. Moreover, the viability at 40 µM was 40 ± 1% in assay [3]; 41 ± 4% in assay [4]; 70 ± 3% in assay [5]; 66 ± 3% in assay [6]; 40% in assay [7]. For the same compound, in [8] (10 mg/kg for 10 days, vehicle 148 ± 14), the “Hepatic triglyceride (mM/g)” value is listed as 80 ± 19 ^a mM/g. The “Serum ALT (U/L)” value in [8] (10 mg/kg for 10 days, vehicle 377 ± 48, Table 15) is given as 185 ± 29 ^a U/L.
Regarding `O=C(OC1CCC2CCCCC2C1)c1ccc(F)cc1` (centres unmarked) [XD-33, decahydro-naphthalen-2-yl 4-fluorobenzoate], the values for the EC50 in assay [1] (setting [10]), in assay [1] (setting [11]) and in assay [2] were less than 1 µM, less than 1 µM and 1000 to 10000 nM, respectively. Also, the “Cell-based FXR transactivation Fold changes by 5 μM compound” value in [2] was 2. Further, the viability at 20 µM in [3] was 100 ± 2%; in [4] it was 97 ± 2%; in assay [5], 100 ± 2%; in assay [6], 97 ± 2%; in [7], 100 ± 2%. In addition, the viability at 40 µM in [3] was 100 ± 2%; in [4] it was 95 ± 2%; in [5] it was 95 ± 2%; in assay [6], 98 ± 2%; in assay [7], 95 ± 2%. For the same compound, in [9], the “Serum Glucose (mg/dl)” value is listed as 400 ± 23^a mg/dl.
